In patent publication US9617267B2, “Compounds and methods for kinase modulation, and indications therefor” (Plexxikon Inc., priority 2009, dated 2017):
pIC50: −log10 of the molar value. Where two headings read alike, the source gives them in different places.

How the values were obtained:
CYP1A2 = CYP1A2 (Homo sapiens (Human), UniProt P05177); assay: CYP enzyme inhibition, fluorescent substrate (CEC)
Procedure, shortened: (§1)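 IC50 derived from loss of fluorescent metabolite across a 10-point 1:1 dilution series. CYP2D6: 1.5 pmol enzyme, 1.5 μM AMMC, 30 min at 37 °C, 409/530 nm; CYP1A2: 0.5 pmol, 5 μM CEC, 15 min, 409/460 nm. Compounds pre-incubated 10 min in NADPH-regenerating mix.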

CYP2C9 = CYP2C9 (Homo sapiens (Human), UniProt P11712); assay: CYP enzyme inhibition, fluorescent substrate (MFC)
Procedure, shortened: (§2)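 10-pt 1:1 serial dilution in co-factor mix (DMSO stock 100 mM); 10 min preincubation, 37 °C; reaction at 37 °C. Readout: fluorescent metabolite of probe substrate. IC50 from signal vs [compound].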

c-Raf-1 = c-Raf-1 (Homo sapiens, UniProt P04049); assay: c-Raf-1 kinase activity biochemical assay (AlphaScreen, biotin-MEK1 phosphorylation)
Procedure, shortened: (§3)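 Compounds from a 0.1 mM DMSO stock were tested at 8 serially diluted points. Kinase reactions with 100 μM ATP (final) ran 45 min at room temperature, then were stopped with EDTA buffer containing anti-phospho-MEK1/2 antibody plus streptavidin donor and protein A acceptor beads.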

CYP3A4(BQ) = CYP3A4(BQ) (Homo sapiens (Human), UniProt P08684); assay: CYP enzyme inhibition, fluorescent substrate BQ
Procedure, shortened: as §2

B-Raf [1] = assay: B-Raf kinase activity biochemical assay (AlphaScreen, biotin-MEK1 phosphorylation); conditions: for Biochemical activity ratio B/V600E: ratio of IC50 B-Raf / B-Raf V600E; for Biochemical activity ratio B/C: ratio of IC50 B-Raf / c-Raf-1
Procedure, shortened: as §3

B-Raf [2] = biological target: B-Raf (Homo sapiens (Human), UniProt P15056); assay: as above; conditions: B-Raf
Procedure, shortened: as §3

[3] = Relative solubility by turbidity threshold concentration in aqueous buffers (pH 1.5, 4.5, 6.8, 7.4); assay type: physicochemical; conditions: for turbidity threshold (L, M, H) 1.4: pH 1.4 [sic] (method: SGF pH 1.5); for turbidity threshold (L, M, H) 4.5: pH 4.5 (SIF); for turbidity threshold (L, M, H) 6.8: pH 6.8 (SIF); for turbidity threshold (L, M, H) 7.4: pH 7.4 (HEPES)
Procedure, shortened: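 Solubility class (high >250 μM, moderate 31.3–250 μM, low <31.3 μM) comes from the concentration where absorbance reaches a 0.01 threshold, averaged across 490/535/650 nm. Samples were compound dilutions from DMSO stock, 1 μL into 99 μL buffer at pH 1.5, 4.5, 6.8 or 7.4.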

CYP2C19 = CYP2C19 (Homo sapiens (Human), UniProt P33261); assay: CYP enzyme inhibition, fluorescent substrate (CEC)
Procedure, shortened: as §2

CYP2D6 = CYP2D6 (Homo sapiens (Human), UniProt P10635); assay: CYP enzyme inhibition, fluorescent substrate (AMMC); assay type: in vitro ADME; conditions: read-out: Cyp IC50 2D6
Procedure, shortened: as §1

B-Raf V600E = B-Raf V600E (Homo sapiens (Human), UniProt P15056, V600E); assay: B-Raf V600E kinase activity biochemical assay (AlphaScreen, biotin-MEK1 phosphorylation); conditions: for IC50: B-Raf V600E; for Biochemical activity ratio V600E/C: ratio of IC50 B-Raf V600E / c-Raf-1
Procedure, shortened: as §3

CYP3A4(BFC) = CYP3A4(BFC) (Homo sapiens (Human), UniProt P08684); assay: CYP enzyme inhibition, fluorescent substrate BFC
Procedure, shortened: as §2

[4] = read-out: Cyp IC50 1A2, CYP1A2, substrate CEC
[5] = read-out: Cyp IC50 2C9, CYP2C9, substrate MFC
[6] = read-out: Cyp IC50 3A4(BQ), CYP3A4, substrate BQ
[7] = read-out: Cyp IC50 2C19, CYP2C19, substrate CEC
[8] = read-out: Cyp IC50 3A4(BFC), CYP3A4, substrate BFC

CYP2D6, sequence (P10635 whole entry): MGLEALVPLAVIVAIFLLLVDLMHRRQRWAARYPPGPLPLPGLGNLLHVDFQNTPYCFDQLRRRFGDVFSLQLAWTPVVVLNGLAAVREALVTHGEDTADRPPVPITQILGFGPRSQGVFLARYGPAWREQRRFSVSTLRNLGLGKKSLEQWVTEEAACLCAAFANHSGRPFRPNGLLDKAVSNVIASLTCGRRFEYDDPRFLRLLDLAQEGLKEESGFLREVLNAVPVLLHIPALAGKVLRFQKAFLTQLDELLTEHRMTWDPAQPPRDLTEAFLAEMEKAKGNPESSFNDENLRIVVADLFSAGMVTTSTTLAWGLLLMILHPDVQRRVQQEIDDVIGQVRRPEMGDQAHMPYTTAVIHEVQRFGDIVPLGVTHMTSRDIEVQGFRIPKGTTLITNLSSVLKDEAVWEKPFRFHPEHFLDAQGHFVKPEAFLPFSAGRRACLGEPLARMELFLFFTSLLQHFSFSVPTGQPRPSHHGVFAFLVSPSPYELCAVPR
CYP2C9, sequence (P11712 whole entry): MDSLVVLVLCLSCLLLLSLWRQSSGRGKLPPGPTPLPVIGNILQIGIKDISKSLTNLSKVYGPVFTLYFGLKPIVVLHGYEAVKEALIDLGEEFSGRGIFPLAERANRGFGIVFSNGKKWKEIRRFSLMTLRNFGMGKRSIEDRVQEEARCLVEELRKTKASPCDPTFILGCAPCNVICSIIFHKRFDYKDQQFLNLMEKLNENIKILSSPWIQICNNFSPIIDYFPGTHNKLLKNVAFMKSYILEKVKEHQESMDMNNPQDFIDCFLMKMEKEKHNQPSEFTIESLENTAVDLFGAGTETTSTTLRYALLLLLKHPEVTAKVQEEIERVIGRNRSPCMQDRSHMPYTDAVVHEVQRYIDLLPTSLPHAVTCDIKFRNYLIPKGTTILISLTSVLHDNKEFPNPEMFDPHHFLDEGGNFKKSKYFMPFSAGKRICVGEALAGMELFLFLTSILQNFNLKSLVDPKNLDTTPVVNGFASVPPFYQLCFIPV
CYP2C19, sequence (P33261 whole entry): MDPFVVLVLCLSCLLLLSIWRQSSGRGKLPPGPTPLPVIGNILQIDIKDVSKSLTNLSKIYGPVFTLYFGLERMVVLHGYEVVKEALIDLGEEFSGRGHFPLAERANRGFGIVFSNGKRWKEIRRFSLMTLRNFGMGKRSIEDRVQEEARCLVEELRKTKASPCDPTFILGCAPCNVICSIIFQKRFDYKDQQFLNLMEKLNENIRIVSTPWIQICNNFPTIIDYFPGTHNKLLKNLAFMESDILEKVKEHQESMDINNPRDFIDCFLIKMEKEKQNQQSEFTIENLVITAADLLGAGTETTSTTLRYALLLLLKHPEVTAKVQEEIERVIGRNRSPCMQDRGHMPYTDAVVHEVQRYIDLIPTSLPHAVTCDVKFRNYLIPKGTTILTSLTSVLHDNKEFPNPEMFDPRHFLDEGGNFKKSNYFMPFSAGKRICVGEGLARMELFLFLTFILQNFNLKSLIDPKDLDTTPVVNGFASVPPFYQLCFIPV
B-Raf (Homo sapiens (Human), UniProt P15056), sequence (P15056 whole entry): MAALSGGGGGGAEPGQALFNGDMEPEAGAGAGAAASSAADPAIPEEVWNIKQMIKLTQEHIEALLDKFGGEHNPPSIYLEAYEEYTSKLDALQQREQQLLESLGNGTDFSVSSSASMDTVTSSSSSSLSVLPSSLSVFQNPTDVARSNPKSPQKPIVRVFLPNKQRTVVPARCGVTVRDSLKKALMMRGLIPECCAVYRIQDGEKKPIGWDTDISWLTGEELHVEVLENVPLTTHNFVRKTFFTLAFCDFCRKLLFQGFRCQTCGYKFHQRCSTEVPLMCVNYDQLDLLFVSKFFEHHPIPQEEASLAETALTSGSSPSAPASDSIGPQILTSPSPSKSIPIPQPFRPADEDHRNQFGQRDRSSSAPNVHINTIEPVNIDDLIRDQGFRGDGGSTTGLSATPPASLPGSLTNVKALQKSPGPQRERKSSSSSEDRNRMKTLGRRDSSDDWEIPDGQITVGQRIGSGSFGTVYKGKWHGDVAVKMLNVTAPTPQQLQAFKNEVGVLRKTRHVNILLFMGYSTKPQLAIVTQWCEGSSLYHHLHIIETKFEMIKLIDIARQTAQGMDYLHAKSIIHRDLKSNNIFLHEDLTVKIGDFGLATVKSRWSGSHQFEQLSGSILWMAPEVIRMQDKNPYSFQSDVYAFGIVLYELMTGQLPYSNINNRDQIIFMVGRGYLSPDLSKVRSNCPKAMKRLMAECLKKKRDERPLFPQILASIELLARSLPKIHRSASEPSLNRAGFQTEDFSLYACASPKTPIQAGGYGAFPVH
B-Raf V600E, sequence (P15056 whole entry V600E): as the sequence (P15056 whole entry) above, with V600E counted along it
CYP1A2, sequence (P05177 whole entry): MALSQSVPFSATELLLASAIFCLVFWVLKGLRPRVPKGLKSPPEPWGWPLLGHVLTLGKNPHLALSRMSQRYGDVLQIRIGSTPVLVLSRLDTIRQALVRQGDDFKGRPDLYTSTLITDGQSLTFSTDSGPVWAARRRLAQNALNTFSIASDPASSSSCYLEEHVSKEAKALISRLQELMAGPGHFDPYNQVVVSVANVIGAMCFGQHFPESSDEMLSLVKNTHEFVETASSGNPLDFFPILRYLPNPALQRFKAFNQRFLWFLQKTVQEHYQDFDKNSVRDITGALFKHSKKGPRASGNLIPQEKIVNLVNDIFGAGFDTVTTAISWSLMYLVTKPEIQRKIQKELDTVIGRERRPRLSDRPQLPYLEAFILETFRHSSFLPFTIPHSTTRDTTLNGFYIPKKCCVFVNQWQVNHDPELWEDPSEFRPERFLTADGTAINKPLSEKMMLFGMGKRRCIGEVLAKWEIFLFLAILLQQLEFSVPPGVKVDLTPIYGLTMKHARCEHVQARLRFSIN
c-Raf-1, sequence (P04049 whole entry, looked up): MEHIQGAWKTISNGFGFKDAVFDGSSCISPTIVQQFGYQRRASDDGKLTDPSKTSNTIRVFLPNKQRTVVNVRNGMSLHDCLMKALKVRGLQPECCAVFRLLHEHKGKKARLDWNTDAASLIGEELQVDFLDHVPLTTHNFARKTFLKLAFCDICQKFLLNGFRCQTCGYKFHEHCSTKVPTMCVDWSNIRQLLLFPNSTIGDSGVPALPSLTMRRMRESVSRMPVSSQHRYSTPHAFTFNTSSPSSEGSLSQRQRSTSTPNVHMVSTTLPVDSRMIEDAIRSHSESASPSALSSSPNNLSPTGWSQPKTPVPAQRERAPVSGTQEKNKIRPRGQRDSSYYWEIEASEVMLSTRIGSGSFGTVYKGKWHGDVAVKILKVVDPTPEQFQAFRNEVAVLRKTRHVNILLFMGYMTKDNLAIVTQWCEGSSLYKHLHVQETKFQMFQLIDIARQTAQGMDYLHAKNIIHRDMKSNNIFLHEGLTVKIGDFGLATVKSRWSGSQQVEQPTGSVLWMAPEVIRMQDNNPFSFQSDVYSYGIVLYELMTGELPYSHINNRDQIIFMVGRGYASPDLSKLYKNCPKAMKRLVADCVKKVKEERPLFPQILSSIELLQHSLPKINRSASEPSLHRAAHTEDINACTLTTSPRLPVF
CYP3A4(BFC), sequence (P08684 whole entry): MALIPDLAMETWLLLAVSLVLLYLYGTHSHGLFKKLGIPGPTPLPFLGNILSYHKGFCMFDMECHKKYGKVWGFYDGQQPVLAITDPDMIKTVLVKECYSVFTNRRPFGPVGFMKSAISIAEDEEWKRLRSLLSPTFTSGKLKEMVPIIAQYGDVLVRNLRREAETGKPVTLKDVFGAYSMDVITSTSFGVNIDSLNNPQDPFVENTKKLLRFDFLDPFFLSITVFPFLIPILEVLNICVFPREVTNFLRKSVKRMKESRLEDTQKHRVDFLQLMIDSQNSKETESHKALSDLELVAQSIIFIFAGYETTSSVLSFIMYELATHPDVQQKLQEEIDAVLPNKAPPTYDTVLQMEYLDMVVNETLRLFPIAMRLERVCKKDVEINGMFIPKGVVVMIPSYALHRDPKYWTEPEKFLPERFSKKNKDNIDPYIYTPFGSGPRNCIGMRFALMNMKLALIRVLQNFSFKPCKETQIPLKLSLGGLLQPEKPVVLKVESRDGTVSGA
CYP3A4(BQ), sequence (P08684 whole entry): as above

Structure (SMILES) | IC50 (c-Raf-1) [µM] | Biochemical activity ratio B/V600E (B-Raf [1]) | Biochemical activity ratio B/C (B-Raf [1]) | IC50 (B-Raf [2]) [µM] | turbidity threshold (L, M, H) 1.4 [3] | turbidity threshold (L, M, H) 4.5 [3] | turbidity threshold (L, M, H) 6.8 [3] | turbidity threshold (L, M, H) 7.4 [3] | pIC50 (CYP2D6) | IC50 (B-Raf V600E) [µM] | Biochemical activity ratio V600E/C (B-Raf V600E) | pIC50 (CYP3A4(BFC)) | pIC50 (CYP1A2; [4]) | pIC50 (CYP2C9; [5]) | pIC50 (CYP3A4(BQ); [6]) | pIC50 (CYP2C19; [7]) | pIC50 (CYP3A4(BFC); [8]) | pIC50 (CYP1A2; human, 15 min) | other results
Cc1c(Cl)cnc2[nH]cc(C(=O)c3c(F)ccc(NS(=O)(=O)c4ccc(C(F)(F)F)cc4)c3F)c12 [P-2011, N-[3-(5-Chloro-4-methyl-1H-pyrrolo[2,3-b]pyridine-3-carbonyl)-2,4-difluoro-phenyl]-4-trifluoromethyl-benzene sulfonamide] | < 0.1 | 0.1-10 | 0.1-10 | < 0.1 | L (low solubility if the threshold concentration is <31.3 μM) | L (low solubility if the threshold concentration is <31.3 μM) | L (low solubility if the threshold concentration is <31.3 μM) | L (low solubility if the threshold concentration is <31.3 μM) | 5.00 to 5.30 | > 0.1 | >10 | < 5.00 |  |  |  |  |  |  | pIC50 (CYP1A2): < 5.00; pIC50 (CYP2C9): < 5.00; pIC50 (CYP3A4(BQ)): < 5.00; pIC50 (CYP2C19): > 5.30
O=C(c1c(F)ccc(NS(=O)(=O)c2ccc(C(F)(F)F)cc2)c1F)c1c[nH]c2ncnc(NC3COC3)c12 [P-1050, N-{2,4-Difluoro-3-[4-(oxetan-3-ylamino)-7H-pyrrolo[2,3-d]pyrimidine-5-carbonyl]-phenyl}-4-trifluoromethyl-benzenesulfonamide] | < 0.1 | 0.1-10 | >10 | < 0.1 | H (high solubility if the threshold concentration is >250 μm) | M (moderate solubility if the threshold concentration is 31.3 μM to 250 μM) | M (moderate solubility if the threshold concentration is 31.3 μM to 250 μM) | M (moderate solubility if the threshold concentration is 31.3 μM to 250 μM) | < 5.00 | < 0.1 | >10 |  | < 5.00 | < 5.00 | < 5.00 | < 5.00 | < 5.00 |  | 
Cc1cc(C)cc(S(=O)(=O)Nc2ccc(F)c(C(=O)c3c[nH]c4ncnc(NC(C)C)c34)c2F)c1 [P-1045, N-[2,4-Difluoro-3-(4-isopropylamino-7H-pyrrolo[2,3-d]pyrimidine-5-carbonyl)-phenyl]-3,5-dimethyl-benzenesulfonamide] | < 0.1 | 0.1-10 | >10 | > 0.1 | M (moderate solubility if the threshold concentration is 31.3 μM to 250 μM) | L (low solubility if the threshold concentration is <31.3 μM) | L (low solubility if the threshold concentration is <31.3 μM) | L (low solubility if the threshold concentration is <31.3 μM) | < 5.00 | < 0.1 | 0.1-10 | 5.00 to 5.30 | < 5.00 |  | < 5.00 | > 5.30 |  |  | pIC50 (CYP2C9): 5.00 to 5.30
Cn1cc(Nc2ncnc3[nH]cc(C(=O)c4c(F)ccc(NS(=O)(=O)c5ccc(C(F)(F)F)cc5)c4F)c23)cn1 [P-1062, N-{2,4-Difluoro-3-[4-(1-methyl-1H-pyrazol-4-ylamino)-7H-pyrrolo[2,3-d]pyrimidine-5-carbonyl]-phenyl}-4-trifluoromethyl-benzenesulfonamide] | < 0.1 | 0.1-10 | >10 | < 0.1 | L (low solubility if the threshold concentration is <31.3 μM) | L (low solubility if the threshold concentration is <31.3 μM) | L (low solubility if the threshold concentration is <31.3 μM) | L (low solubility if the threshold concentration is <31.3 μM) | < 5.00 | < 0.1 | >10 | 5.00 to 5.30 |  | > 5.30 |  | < 5.00 |  | < 5.00 | pIC50 (CYP3A4(BQ)): 5.00 to 5.30
CCCc1ccc(S(=O)(=O)Nc2ccc(F)c(C(=O)c3c[nH]c4ncnc(NC5COC5)c34)c2F)cc1 [P-1056, N-{2,4-Difluoro-3-[4-(oxetan-3-ylamino)-7H-pyrrolo[2,3-d]pyrimidine-5-carbonyl]-phenyl}-4-propyl-benzenesulfonamide] | < 0.1 | 0.1-10 | >10 | < 0.1 | M (moderate solubility if the threshold concentration is 31.3 μM to 250 μM) | L (low solubility if the threshold concentration is <31.3 μM) | L (low solubility if the threshold concentration is <31.3 μM) | L (low solubility if the threshold concentration is <31.3 μM) | < 5.00 | > 0.1 | >10 |  |  | < 5.00 | < 5.00 | < 5.00 | < 5.00 | < 5.00 | 
O=C(c1c(F)ccc(NS(=O)(=O)c2ccc(C(F)(F)F)cc2)c1F)c1c[nH]c2ncnc(NCC3CC3)c12 [P-1052, N-{3-[4-(Cyclopropylmethyl-amino)-7H-pyrrolo[2,3-d]pyrimidine-5-carbonyl]-2,4-difluoro-phenyl}-4-trifluoromethyl-benzenesulfonamide] | < 0.1 | 0.1-10 | >10 | < 0.1 | L (low solubility if the threshold concentration is <31.3 μM) | L (low solubility if the threshold concentration is <31.3 μM) | L (low solubility if the threshold concentration is <31.3 μM) | L (low solubility if the threshold concentration is <31.3 μM) | < 5.00 | < 0.1 | >10 | 5.00 to 5.30 | < 5.00 | > 5.30 | < 5.00 | > 5.30 |  |  | 
Cc1ncnc2[nH]cc(C(=O)c3c(F)ccc(NS(=O)(=O)c4ccc(C(F)(F)F)cc4)c3F)c12 [P-1001, N-[2,4-Difluoro-3-(4-methyl-7H-pyrrolo[2,3-d]pyrimidine-5-carbonyl)-phenyl]-4-trifluoromethyl-benzenesulfonamide] | < 0.1 | 0.1-10 | 0.1-10 | < 0.1 | H (high solubility if the threshold concentration is >250 μm) | M (moderate solubility if the threshold concentration is 31.3 μM to 250 μM) | M (moderate solubility if the threshold concentration is 31.3 μM to 250 μM) | M (moderate solubility if the threshold concentration is 31.3 μM to 250 μM) | < 5.00 | > 0.1 | >10 |  |  | < 5.00 | < 5.00 | < 5.00 | > 5.30 | < 5.00 | 
